The values below come from patent US8013153B2, “Substituted pyrimidine kinase inhibitors” (Janssen Pharmaceutica, N.V., priority 2006, dated 2011).

What is called pIC50 is −log10 of the IC50, conventionally taken in molar units. A word on the IC50: it is the midpoint of a concentration-inhibition curve. The low end stands for greater potency, the high end for weaker potency.

One assay addresses T1, CDK1:Cyclin-B (Homo sapiens, UniProt P06493).
T1 construct: purchased New England Biolabs, Beverly, Mass; 6020; host or cells: insect cells
The experiment in a line: CDK1 Screening Assay. It counts as biochemical.

A further assay has as its target T2, murine Aurora-A (Mus musculus, UniProt P97477).
T2 construct: replaced with the full length protein encoding the murine Aurora-A; made in house; host or cells: sf9 insect cells
T2 sequence (P97477 1-395): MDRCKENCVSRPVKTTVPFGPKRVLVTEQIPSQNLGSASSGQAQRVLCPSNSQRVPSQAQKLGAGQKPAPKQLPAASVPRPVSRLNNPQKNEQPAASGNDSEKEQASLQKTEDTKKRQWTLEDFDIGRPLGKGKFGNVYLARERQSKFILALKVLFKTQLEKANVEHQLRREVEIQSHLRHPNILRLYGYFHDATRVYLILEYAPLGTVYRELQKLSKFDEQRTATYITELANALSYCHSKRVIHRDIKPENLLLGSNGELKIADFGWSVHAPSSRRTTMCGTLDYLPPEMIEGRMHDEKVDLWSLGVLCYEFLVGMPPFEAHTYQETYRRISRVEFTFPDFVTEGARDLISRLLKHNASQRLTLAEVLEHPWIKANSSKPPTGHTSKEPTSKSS
The experiment in a line: Aurora-A Screening Assay. It counts as biochemical.

The next assay addresses T3, HER2 cytoplasmic domain (Homo sapiens, UniProt P04626).
T3 construct: polyhistidine (N)
The experiment in a line: HER2 Kinase Screening Assay. To be noted: > means no observed 50% inhibition at the indicated test concentration; ~ means approximately 50% inhibition at that concentration. It counts as biochemical.

A further assay deals with T4, RET cytoplasmic domain (Homo sapiens, UniProt P07949).
T4 construct: the RET cytoplasmic domain consisting of the last 492 amino acids of the intracellular domain; histidine tag (N); made in house; host or cells: Hi5 insect cells
T4 sequence (P07949 658-1114 limits assumed): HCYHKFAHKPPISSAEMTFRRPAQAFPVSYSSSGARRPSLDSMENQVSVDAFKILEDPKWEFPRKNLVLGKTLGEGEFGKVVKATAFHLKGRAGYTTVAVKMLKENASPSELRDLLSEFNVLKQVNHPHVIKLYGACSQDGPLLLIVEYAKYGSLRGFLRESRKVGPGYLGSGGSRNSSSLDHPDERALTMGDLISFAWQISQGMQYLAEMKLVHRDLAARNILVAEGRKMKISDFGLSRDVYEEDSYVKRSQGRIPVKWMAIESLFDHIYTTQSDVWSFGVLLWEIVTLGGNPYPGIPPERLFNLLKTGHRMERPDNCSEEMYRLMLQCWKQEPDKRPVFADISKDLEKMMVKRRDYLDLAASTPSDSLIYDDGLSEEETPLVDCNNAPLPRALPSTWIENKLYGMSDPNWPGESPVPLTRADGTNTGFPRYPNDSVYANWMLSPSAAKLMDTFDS
The experiment in a line: RET Kinase Screening Assay. The format is biochemical.

Assay [1] has as its system HeLa cervical adenocarcinoma. The experiment in a line: Inhibition of in vitro cell proliferation (HeLa).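 Also: cells exposed to compound for 24 h, then labelled 24 h with methyl 14C-thymidine, with uptake into DNA counted by scintillation against DMSO-only control wells.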 The format is cell-based, human. To be noted: Homo sapiens, 14C-thymidine incorporation. For orientation: Uptake of a labelled nucleoside into DNA is a usual measure of proliferation.
A further assay has as its system HCT-116 colon carcinoma. The experiment in a line: Inhibition of in vitro cell proliferation (HCT116).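 Also: cells exposed to compound for 24 h, then 14C-thymidine added for a further 24 h and its uptake into DNA counted by scintillation, DMSO-only wells as control.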 It counts as cell-based, human. To be noted: Homo sapiens, HCT-116, 14C-thymidine incorporation.
In another assay the test system is A375 malignant melanoma. The experiment in a line: Inhibition of in vitro cell proliferation (A375).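 Also: cells plated for 24 h, given compound for 24 h, then labelled with 14C-thymidine for another 24 h, with DMSO-only wells as control and counts read by scintillation.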 It counts as cell-based, human. Conditions: Homo sapiens, A-375, 14C-thymidine incorporation.
For assay [2], the target named is T5, rat VEGF-R2 kinase domain (Rattus norvegicus, UniProt O08775).
T5 construct: amino acids 786-1343 of the rat VEGF-R2 kinase domain; polyhistidine (N)
T5 sequence (O08775 786-1343): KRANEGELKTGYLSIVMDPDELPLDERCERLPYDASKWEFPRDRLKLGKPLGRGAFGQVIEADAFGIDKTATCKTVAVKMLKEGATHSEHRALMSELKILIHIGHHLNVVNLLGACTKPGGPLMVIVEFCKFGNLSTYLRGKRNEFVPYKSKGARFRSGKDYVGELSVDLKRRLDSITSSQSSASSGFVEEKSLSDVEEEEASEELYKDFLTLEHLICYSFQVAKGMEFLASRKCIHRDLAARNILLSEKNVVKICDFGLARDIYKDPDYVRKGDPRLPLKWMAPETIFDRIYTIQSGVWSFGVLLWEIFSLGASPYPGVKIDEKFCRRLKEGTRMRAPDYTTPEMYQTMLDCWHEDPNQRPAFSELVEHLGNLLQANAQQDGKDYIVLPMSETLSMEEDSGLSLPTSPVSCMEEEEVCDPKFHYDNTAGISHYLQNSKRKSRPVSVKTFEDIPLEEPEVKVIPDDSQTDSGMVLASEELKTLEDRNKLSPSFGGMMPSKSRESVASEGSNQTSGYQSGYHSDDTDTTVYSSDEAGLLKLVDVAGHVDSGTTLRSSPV
The experiment in a line: VEGF-R2 Screening Assay. The format is biochemical.

The mark [3] stands for this setting: > means no observed 50% inhibition at the indicated test concentration, ~ means approximately 50% inhibition at that concentration, read-out: IC50 VEGF-R2.

pIC50: −log10 of the molar value. Where two headings read alike, the source gives them in different places.

T1 sequence (P06493 whole entry): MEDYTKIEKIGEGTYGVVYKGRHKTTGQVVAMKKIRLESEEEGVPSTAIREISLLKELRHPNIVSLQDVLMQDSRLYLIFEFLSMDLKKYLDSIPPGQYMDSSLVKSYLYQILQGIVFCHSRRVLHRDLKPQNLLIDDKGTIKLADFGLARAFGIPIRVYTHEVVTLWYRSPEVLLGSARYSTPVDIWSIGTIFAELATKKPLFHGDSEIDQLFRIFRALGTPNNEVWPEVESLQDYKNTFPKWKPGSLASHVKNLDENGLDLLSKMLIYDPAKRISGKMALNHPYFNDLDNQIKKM
T1 sequence (P14635 whole entry partner): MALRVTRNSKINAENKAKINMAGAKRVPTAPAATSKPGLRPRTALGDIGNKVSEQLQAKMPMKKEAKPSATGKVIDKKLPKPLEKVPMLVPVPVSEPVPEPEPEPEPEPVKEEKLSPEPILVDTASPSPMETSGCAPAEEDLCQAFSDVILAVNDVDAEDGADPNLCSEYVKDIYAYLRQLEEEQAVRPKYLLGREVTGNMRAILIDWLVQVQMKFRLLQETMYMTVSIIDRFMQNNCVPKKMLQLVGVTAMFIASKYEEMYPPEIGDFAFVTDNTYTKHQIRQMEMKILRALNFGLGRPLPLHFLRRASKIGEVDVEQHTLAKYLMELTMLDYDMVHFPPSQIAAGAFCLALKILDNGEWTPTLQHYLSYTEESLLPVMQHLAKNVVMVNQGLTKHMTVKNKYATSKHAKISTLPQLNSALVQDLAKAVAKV
T3 sequence (P04626 676-1255 limits assumed): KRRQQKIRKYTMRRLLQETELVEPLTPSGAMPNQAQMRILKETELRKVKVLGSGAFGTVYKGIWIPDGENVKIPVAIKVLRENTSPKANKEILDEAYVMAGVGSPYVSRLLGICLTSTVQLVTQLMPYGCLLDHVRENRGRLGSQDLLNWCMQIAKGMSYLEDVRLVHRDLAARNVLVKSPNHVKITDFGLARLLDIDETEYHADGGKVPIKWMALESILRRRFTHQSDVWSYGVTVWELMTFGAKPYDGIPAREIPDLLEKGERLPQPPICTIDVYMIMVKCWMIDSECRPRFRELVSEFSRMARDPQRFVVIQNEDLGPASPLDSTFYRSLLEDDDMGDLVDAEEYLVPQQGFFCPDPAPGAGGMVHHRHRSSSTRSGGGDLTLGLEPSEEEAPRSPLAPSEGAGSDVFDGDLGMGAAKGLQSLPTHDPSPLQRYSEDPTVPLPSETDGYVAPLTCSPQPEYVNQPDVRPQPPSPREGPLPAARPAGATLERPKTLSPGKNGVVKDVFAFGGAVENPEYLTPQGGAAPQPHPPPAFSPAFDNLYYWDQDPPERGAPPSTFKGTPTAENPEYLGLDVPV

Regarding `CON=Cc1c(N)ncnc1Oc1ccc2c(ccn2C)c1` [Cpd 11, 4-amino-6-(1-methyl-1H-indol-5-yloxy)-pyrimidine-5-carbaldehyde O-methyl-oxime], the pIC50 was less than 4.00 on CDK1:Cyclin-B, less than 4.00 on murine Aurora-A, less than 5.00 on HER2 cytoplasmic domain and less than 4.00 against RET cytoplasmic domain. In addition, the IC50 in assay [1] is 0.375 µM; in the assay on HCT-116 colon carcinoma, 0.749 µM; in the assay on A375 malignant melanoma, 0.326 µM.

`CO/N=C/c1c(N)ncnc1Oc1ccc2[nH]ccc2c1` [Cpd 10, 4-amino-6-(1H-indol-5-yloxy)-pyrimidine-5-carbaldehyde O-methyl-oxime]: the pIC50 against CDK1:Cyclin-B is less than 4.00; against murine Aurora-A, less than 5.00; on HER2 cytoplasmic domain it was 6.16; at RET cytoplasmic domain, 5.65. In addition, the IC50 in assay [1] is 1.87 µM; in the assay with HCT-116 colon carcinoma, 3.52 µM; with A375 malignant melanoma, 0.783 µM.

As for `Cc1cc2c(F)c(Oc3ncnc(N)c3C=NOCCN(C)C)ccc2[nH]1` [Cpd 15, 4-amino-6-(4-fluoro-2-methyl-1H-indol-5-yloxy)-pyrimidine-5-carbaldehyde O-(2-dimethylamino-ethyl)-oxime], the pIC50 was less than 4.00 against CDK1:Cyclin-B, less than 4.00 at murine Aurora-A, 4.44 at HER2 cytoplasmic domain and less than 4.00 at RET cytoplasmic domain.

Consider `Cc1cc2c(F)c(Oc3ncnc(N)c3C=NOCCN3CCOCC3)ccc2[nH]1` [Cpd 14, 4-amino-6-(4-fluoro-2-methyl-1H-indol-5-yloxy)-pyrimidine-5-carbaldehyde O-(2-morpholin-4-yl-ethyl)-oxime], for which the pIC50 is less than 4.00 against CDK1:Cyclin-B, less than 4.00 at murine Aurora-A, roughly 5.00 against HER2 cytoplasmic domain and less than 4.00 against RET cytoplasmic domain.

As for `C#CCON=Cc1c(N)ncnc1Oc1ccc2[nH]c(C)cc2c1F` [Cpd 30, 4-amino-6-(4-fluoro-2-methyl-1H-indol-5-yloxy)-pyrimidine-5-carbaldehyde O-prop-2-ynyl-oxime], the negative-log IC50 (pIC50) is less than 4.00 on CDK1:Cyclin-B, less than 4.00 against murine Aurora-A, less than 5.00 against HER2 cytoplasmic domain and roughly 5.00 on RET cytoplasmic domain.

Regarding `CON=Cc1c(N)ncnc1Oc1ccc(NC(=O)Nc2ccccn2)c(Cl)c1` [Cpd 86, 1-{4-[6-amino-5-(methoxyimino-methyl)-pyrimidin-4-yloxy]-2-chloro-phenyl}-3-pyridin-2-yl-urea], the pIC50 was less than 4.00 at CDK1:Cyclin-B, 7.47 in assay [2] (setting [3]), less than 4.00 on murine Aurora-A and less than 4.00 against HER2 cytoplasmic domain. In addition, the IC50 in assay [1] was greater than 10 µM; with HCT-116 colon carcinoma, greater than 10 µM; in the assay on A375 malignant melanoma it was 6.25 µM.

As for `CON=Cc1c(N)ncnc1Oc1ccc(NC(=O)NCCCO)c(Cl)c1` [Cpd 83, 1-{4-[6-amino-5-(methoxyimino-methyl)-pyrimidin-4-yloxy]-2-chloro-phenyl}-3-(3-hydroxy-propyl)-urea], the negative-log IC50 (pIC50) against CDK1:Cyclin-B was less than 4.00; in assay [2] (IC50 VEGF-R2) it was 6.40; at murine Aurora-A, less than 4.00; against HER2 cytoplasmic domain it was less than 5.00. Further, the IC50 came to 4.18 µM in assay [1], 3.78 µM in the assay on HCT-116 colon carcinoma and 3.94 µM in the assay on A375 malignant melanoma.

As for `CON=Cc1c(N)ncnc1Oc1ccc(NC(=O)NCCO)c(Cl)c1` [Cpd 81, 1-{4-[6-amino-5-(methoxyimino-methyl)-pyrimidin-4-yloxy]-2-chloro-phenyl}-3-(2-hydroxy-ethyl)-urea], the pIC50 against CDK1:Cyclin-B is less than 4.00; in assay [2] (setting [3]) it was 6.77; against murine Aurora-A it was less than 4.00; at HER2 cytoplasmic domain it was less than 4.00. Also, the IC50 in assay [1] was 4.27 µM; in the assay with HCT-116 colon carcinoma, 4.06 µM; in the assay on A375 malignant melanoma, 3.91 µM.

With `CON=Cc1c(N)ncnc1Oc1ccc(O)cc1` [Cpd 67, 4-amino-6-(4-hydroxy-phenoxy)-pyrimidine-5-carbaldehyde O-methyl-oxime], the pIC50 against CDK1:Cyclin-B is less than 4.00; in assay [2] (setting [3]) it was 5.36; on murine Aurora-A, 4.75; at HER2 cytoplasmic domain, 4.88. Besides, the IC50 in assay [1] is 3.99 µM; in the assay with HCT-116 colon carcinoma, 2.95 µM; in the assay with A375 malignant melanoma, 3.22 µM.

Regarding `CON=Cc1c(N)ncnc1Oc1ccc(CC(=O)Nc2ccc(C)cc2)cc1` [Cpd 99, 2-{4-[6-amino-5-(methoxyimino-methyl)-pyrimidin-4-yloxy]-phenyl}-N-p-tolyl-acetamide], the pIC50 at CDK1:Cyclin-B is less than 4.00; in assay [2] (setting [3]), 8.10; against murine Aurora-A, less than 4.00; on HER2 cytoplasmic domain, 6.66. Also, the IC50 (in assay [1]; in the assay on HCT-116 colon carcinoma; in the assay on A375 malignant melanoma) was greater than 100 µM in each case.

On to `Cc1cc2c(F)c(Oc3ncnc(N)c3C=NOCCCCN3CCOCC3)ccc2[nH]1` [Cpd 26, 4-amino-6-(4-fluoro-2-methyl-1H-indol-5-yloxy)-pyrimidine-5-carbaldehyde O-(4-morpholin-4-yl-butyl)-oxime], for which the pIC50 was less than 4.00 against CDK1:Cyclin-B, 7.32 in assay [2] (setting [3]), less than 4.00 against murine Aurora-A and 5.99 on HER2 cytoplasmic domain. Further, the IC50 in assay [1] was greater than 100 µM; with HCT-116 colon carcinoma, greater than 1 µM; in the assay with A375 malignant melanoma, greater than 100 µM.

As for `CON=Cc1c(N)ncnc1Oc1ccc(NC(=O)Nc2ccc(F)cc2)c(Cl)c1` [Cpd 60, 1-{4-[6-amino-5-(methoxyimino-methyl)-pyrimidin-4-yloxy]-2-chloro-phenyl}-3-(4-fluoro-phenyl)-urea], the negative logarithm of the IC50 (pIC50) on CDK1:Cyclin-B was less than 4.00; in assay [2] (setting [3]), 8.55; at murine Aurora-A it was less than 5.00; against HER2 cytoplasmic domain, less than 4.00. Also, the IC50 (in assay [1]; with HCT-116 colon carcinoma; with A375 malignant melanoma) was greater than 10 µM in each case.

For the compound `CON=Cc1c(N)ncnc1Oc1ccc(OCc2ccccc2)cc1` [Cpd 110, 4-amino-6-[4-(benzyloxy)phenoxy]-5-pyrimidinecarboxaldehyde O-methyloxime], the pIC50 against CDK1:Cyclin-B is less than 4.00; in assay [2] (setting [3]), roughly 6.00; at murine Aurora-A, less than 4.00; on HER2 cytoplasmic domain, 6.26. Besides, the IC50 (in assay [1]; in the assay with HCT-116 colon carcinoma; in the assay on A375 malignant melanoma) was greater than 100 µM each time.

In the case of `CCCNC(=O)n1c(C)cc2cc(Oc3ncnc(N)c3C=NOC)ccc21` [Cpd 48, 5-[6-amino-5-(methoxyimino-methyl)-pyrimidin-4-yloxy]-2-methyl-indole-1-carboxylic acid propylamide], the pIC50 was less than 4.00 against CDK1:Cyclin-B, 8.12 in assay [2] (setting [3]), less than 4.00 on murine Aurora-A and less than 5.00 at HER2 cytoplasmic domain. The IC50 in assay [1] came to 3.37 µM; with HCT-116 colon carcinoma, 1.22 µM; in the assay on A375 malignant melanoma, 1.15 µM.

Consider `CON=Cc1c(N)ncnc1Oc1ccc(NC(=O)Nc2ccccc2C)c(Cl)c1` [Cpd 75, 1-{4-[6-amino-5-(methoxyimino-methyl)-pyrimidin-4-yloxy]-2-chloro-phenyl}-3-o-tolyl-urea], for which the pIC50 was less than 4.00 against CDK1:Cyclin-B, 8.10 in assay [2] (setting [3]), less than 4.00 on murine Aurora-A and less than 4.00 against HER2 cytoplasmic domain. Moreover, the IC50 (in assay [1]; in the assay with HCT-116 colon carcinoma; in the assay with A375 malignant melanoma) was greater than 100 µM in each case.

In the case of `CON=Cc1c(N)ncnc1Oc1ccc(NC(=O)Nc2cc(C)on2)c(Cl)c1` [Cpd 93, 1-{4-[6-amino-5-(methoxyimino-methyl)-pyrimidin-4-yloxy]-2-chloro-phenyl}-3-(5-methyl-isoxazol-3-yl)-urea], the pIC50 against CDK1:Cyclin-B was less than 4.00; in assay [2] (setting [3]) it was 8.70; on murine Aurora-A, less than 4.00; at HER2 cytoplasmic domain, less than 5.00. In addition, the IC50 in assay [1] worked out at 10 µM; with HCT-116 colon carcinoma, 3.12 µM; with A375 malignant melanoma, 2.12 µM.
